This assay concerns B16-F1 tumor. Briefly: In vivo mouse B16-F1 tumor model, molecule alone. On the set-up: species or system C57BL/6 mice. The following applies: by day 23, intra-tumoral injections, FIG. 8A. The method, then: Measurements were performed under gas anesthesia.
The second group received intra-tumoral injections of CL413 molecule alone (a TLR7-TLR2 Pam2CSK4-based molecule). Third and forth groups received intra-tumoral injections of the TLR2 ligand, Pam2CSK4 alone, and the TLR7 ligand alone, respectively. A fifth group received a combined treatment of Pam2CSK4 and TLR7 ligand, in solution at the equivalent molecule quantity of the respective TLR2 and TLR7 moieties in CL413 (in 100 μl Bionolyte G5® with Pluronic® F-68 2%) for a total of 3 injections.

Take “(6S,9S,12S,15S,18S,21R)-6,25-diamino-21-(4-((6-amino-2-(butylamino)-8-hydroxy-9H-purin-9-yl)methyl)phenylcarbamoyl)-12,15,18-tris(4-aminobutyl)-9-(hydroxyl methyl)-7,10,13,16,19-pentaoxo-4-thia-8,11,14,17,20-pentaazapentacosane-1,2-diyl dipalmitate [CL413]”: the tumor volume result was “no increase in tumor volume”.

Values taken from patent US9295732B2, “Conjugated TLR7 and/or TLR8 and TLR2 polycationic agonists” (CAYLA, priority 2013, dated 2016).
